Residues, ends and D or L forms follow the SMILES beside them.
Key:
δ opioid receptors = biological target: T1, δ opioid receptors (Mus musculus, UniProt P32300); test: MVD assay: inhibition of electrically evoked contractions of the mouse vas deferens (δ antagonist Ke); format: cell-based; details: means of 3-8 determinations ± SEM
T1 construct: Bioassays Using Isolated Organ Preparations; from tissue; host or cells: isolated mouse vas deferens
Method: (§1) a) Bioassays based on inhibition of electrically evoked contractions of the mouse vas deferens (MVD) and of the guinea pig ileum (GPI). In the GPI assay the opioid effect is primarily mediated by μ opioid receptors, whereas in the MVD assay the inhibition of the contractions is mostly due to interaction with δ opioid receptors.
(§2) The GPI and MVD bioassays were carried out as reported in P. W. Schiller et al., Biochem. Biophys. Res. Commun 85, 1332-1338 (1978) and J. Di Maio et al., J. Med. Chem. 25, 1432-1438 (1982). A log dose-response curve was determined with [Leu^5 ] enkephalin as standard for each ileum and vas preparation, and IC50 values of the compounds being tested were normalized according to A. A. Waterfield et al., Eur. J. Pharmacol. 58, 11-18 (1979). Ke values for the cyclic β-casomorphin analogs with mixed μ agonist/δ antagonist properties (δ antagonist effect) were determined from the ratio of IC50 values (DR) obtained in the presence and absence of a fixed antagonist concentration (a) (Ke =a/(DR-1)) H. W. Kosterlitz & A. J. Watt, Br. J. Pharmacol. 33, 266-276 (1968). These determinations were made with the MVD assay, using three different δ-selective agonists ([Leu^5 ]enkephalin, DPDPE and [D-Ala^2]deltorphin I].

μ opioid receptor = biological target: T2, μ opioid receptor (Rattus norvegicus, UniProt P33535); test: μ opioid receptor binding, displacement of [3H]DAMGO from rat brain membranes; details: [3H]DAMGO 0.7 nM, Cheng-Prusoff, means of three determinations ± SEM
T2 construct: from tissue; host or cells: rat brain membranes (cerebellum removed), Sprague-Dawley
Text: (§3) In the case of κ-ligands guinea pig brain homogenates were used, since the relative proportion of κ-binding sites is higher in guinea pig brain than in rat brain. The experimental procedure being used in our laboratory represents a modified version of the binding assay described by Paternak et al. (Mol. Pharmacol. 11 340-351, (1975)). Male Sprague-Dawley rats (300-350 g) from the Canadian Breeding Laboratories were decapitated and after removal of the cerebellum the brains were homogenized in 30 volumes of ice-cold standard buffer (50 mM Tris-HCl, pH 7.7). After centrifugation at 30,000×g for 30 min at 4° C. the membranes were reconstituted in the original volume of standard buffer and incubated for 30 min at 37° C. (to release bound endogenous ligands). […] The incubation was terminated by filtration through Whatman GF/B filters under vacuum at 4° C. Following two washings with 5 ml portions of ice-cold standard buffer the filters were transferred to scintillation vials and treated with 1 ml Protosol (New England Nuclear) for 30 min prior to the addition of 0.5 ml acetic acid and 10 ml Aquasol (New England Nuclear). After shaking for 30 min the vials were counted at an efficiency of 40-45%. All experiments were performed in duplicates and repeated at least three times. Specific binding of each of the three radioglands was defmed by performing incubations in the presence of cold DAMGO, DSLET and U69,563, respectively, at a concentration of 1 micromolar. Values of half-maximal inhibition (IC50) of specific binding were obtained graphically from semilogarithmic plots. From the measured IC50-values, binding inhibition constants (Ki) were then calculated based on Cheng and Prussoff's equation (Biochem. Pharmacol. 22, 3099-3102 (1973)). Ratios of the Ki -values in the μ-, δ- and κ-representative bindning assays are a measure of the receptor selectivity of the compound under investigation (e.g. Ki^δ/ Ki^μ indicated the selectivity for μ-receptors versus δ-receptors).

μ opioid receptors = μ opioid receptors (Cavia porcellus, UniProt P97266); test: GPI assay: inhibition of electrically evoked contractions of the guinea pig ileum; format: cell-based; details: means of 3-6 determinations ± SEM, normalized to [Leu5]enkephalin standard, read-out: IC50 in the GPI assay (agonist potency)
Method: as §1, §2

δ opioid receptor = biological target: T3, δ opioid receptor (Rattus norvegicus, UniProt P33533); test: δ opioid receptor binding, displacement of δ-selective radioligand from rat brain membranes
T3 construct: from tissue; host or cells: rat brain membranes (cerebellum removed), Sprague-Dawley
Text: as §3

T1 sequence (P32300 whole entry): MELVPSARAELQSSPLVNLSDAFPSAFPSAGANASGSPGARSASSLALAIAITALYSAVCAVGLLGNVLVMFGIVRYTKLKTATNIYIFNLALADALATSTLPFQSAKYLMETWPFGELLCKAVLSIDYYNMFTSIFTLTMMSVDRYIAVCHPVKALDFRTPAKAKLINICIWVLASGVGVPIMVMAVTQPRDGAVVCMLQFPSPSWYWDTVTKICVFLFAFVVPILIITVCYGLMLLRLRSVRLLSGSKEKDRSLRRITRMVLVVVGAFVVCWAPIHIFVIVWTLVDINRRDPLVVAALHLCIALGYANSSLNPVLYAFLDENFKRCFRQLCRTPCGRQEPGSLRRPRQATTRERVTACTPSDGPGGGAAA
T3 sequence (P33533 whole entry): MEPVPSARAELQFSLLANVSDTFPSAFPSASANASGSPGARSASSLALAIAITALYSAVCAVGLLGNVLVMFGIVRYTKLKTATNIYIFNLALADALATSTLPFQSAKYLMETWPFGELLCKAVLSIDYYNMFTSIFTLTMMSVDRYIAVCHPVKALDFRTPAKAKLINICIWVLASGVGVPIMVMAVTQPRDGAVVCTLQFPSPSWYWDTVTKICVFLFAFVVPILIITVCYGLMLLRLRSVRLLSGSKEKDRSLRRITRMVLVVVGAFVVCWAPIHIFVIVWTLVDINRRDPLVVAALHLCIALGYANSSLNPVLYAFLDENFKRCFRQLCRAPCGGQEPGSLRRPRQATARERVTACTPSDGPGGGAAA
T2 sequence (P33535 whole entry): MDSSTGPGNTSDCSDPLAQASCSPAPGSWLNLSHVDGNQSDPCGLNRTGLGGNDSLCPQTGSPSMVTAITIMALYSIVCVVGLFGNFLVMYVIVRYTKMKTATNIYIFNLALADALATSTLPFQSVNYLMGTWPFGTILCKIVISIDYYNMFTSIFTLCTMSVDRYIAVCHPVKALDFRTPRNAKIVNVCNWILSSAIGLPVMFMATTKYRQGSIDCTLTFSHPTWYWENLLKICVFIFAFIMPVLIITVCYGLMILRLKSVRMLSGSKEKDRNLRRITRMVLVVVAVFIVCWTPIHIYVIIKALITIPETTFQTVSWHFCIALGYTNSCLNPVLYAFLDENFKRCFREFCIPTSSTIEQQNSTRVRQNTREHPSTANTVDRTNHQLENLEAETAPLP
Sequence of μ opioid receptors (P97266 whole entry, looked up): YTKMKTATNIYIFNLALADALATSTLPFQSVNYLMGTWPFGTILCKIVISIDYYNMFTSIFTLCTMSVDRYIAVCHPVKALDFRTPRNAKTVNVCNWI

N[C@@H](Cc1ccc(O)cc1)C(=O)N[C@@H]1CCCNC(=O)CNC(=O)[C@H]2CCCN2C(=O)[C@H](Cc2ccc3ccccc3c2)NC1=O [H-Tyr-c[-D-Orn-2-Nal-D-Pro-Gly-], reference compound] (HELM PEPTIDE1{Y.[O=C([C@@H](CCCN[*:3])N[*:1])[*:2]].[O=C([C@H](Cc1ccc2ccccc2c1)N[*:1])[*:2]].[dP].G}$PEPTIDE1,PEPTIDE1,2:R3-5:R2$$$V2.0)
Ke in the MVD assay, antagonist potency against DPDPE (δ opioid receptors; δ agonist DPDPE): 233 ± 28
Ke in the MVD assay, antagonist potency against [D-Ala2]deltorphin I (δ opioid receptors; δ agonist [D-Ala2]deltorphin I): 202 ± 24
Ke in the MVD assay, antagonist potency against [Leu5]enkephalin (δ opioid receptors; δ agonist [Leu5]enkephalin): 268 ± 22
Ki (μ opioid receptor): 5.89 ± 1.6 nM
IC50 (μ opioid receptors): 384 nM
Ki^δ/Ki^μ (selectivity for μ versus δ receptors) (δ opioid receptor; ratio of binding constants): 2.92
Ki (δ opioid receptor; δ-selective radioligand 1.0 nM, Cheng-Prusoff, means of three determinations ± SEM): 17.2 ± 4.9 nM

From patent US5786447A, “Opioid peptide analogs” (Astra AB, priority 1994, dated 1998)
